Results: patent US20100292217A1, “RANOLAZINE FOR THE TREATMENT OF CNS DISORDERS” (Gilead Palo Alto, Inc., priority 2009, published 2010)
Like-named read-outs stand apart in the source and are kept apart here.

Tests used:
Nav1.1 R1648H = target: T1, Nav1.1 R1648H (Homo sapiens, UniProt P35498, R1648H); assay: Whole-cell voltage-clamp of mutant Nav1.1 R1648H (GEFS+); type: cell-based
T1 construct: expressed in transfected cells; host or cells: tsA201 cells (named for WT; same transient transfection method for mutants)

[1] = target: cardiac voltage-gated potassium channel HERG (Homo sapiens, UniProt Q12809); details: accounts for mild QT interval prolongation in some subjects; cited from earlier work
cardiac voltage-gated potassium channel HERG, sequence (Q12809 whole entry): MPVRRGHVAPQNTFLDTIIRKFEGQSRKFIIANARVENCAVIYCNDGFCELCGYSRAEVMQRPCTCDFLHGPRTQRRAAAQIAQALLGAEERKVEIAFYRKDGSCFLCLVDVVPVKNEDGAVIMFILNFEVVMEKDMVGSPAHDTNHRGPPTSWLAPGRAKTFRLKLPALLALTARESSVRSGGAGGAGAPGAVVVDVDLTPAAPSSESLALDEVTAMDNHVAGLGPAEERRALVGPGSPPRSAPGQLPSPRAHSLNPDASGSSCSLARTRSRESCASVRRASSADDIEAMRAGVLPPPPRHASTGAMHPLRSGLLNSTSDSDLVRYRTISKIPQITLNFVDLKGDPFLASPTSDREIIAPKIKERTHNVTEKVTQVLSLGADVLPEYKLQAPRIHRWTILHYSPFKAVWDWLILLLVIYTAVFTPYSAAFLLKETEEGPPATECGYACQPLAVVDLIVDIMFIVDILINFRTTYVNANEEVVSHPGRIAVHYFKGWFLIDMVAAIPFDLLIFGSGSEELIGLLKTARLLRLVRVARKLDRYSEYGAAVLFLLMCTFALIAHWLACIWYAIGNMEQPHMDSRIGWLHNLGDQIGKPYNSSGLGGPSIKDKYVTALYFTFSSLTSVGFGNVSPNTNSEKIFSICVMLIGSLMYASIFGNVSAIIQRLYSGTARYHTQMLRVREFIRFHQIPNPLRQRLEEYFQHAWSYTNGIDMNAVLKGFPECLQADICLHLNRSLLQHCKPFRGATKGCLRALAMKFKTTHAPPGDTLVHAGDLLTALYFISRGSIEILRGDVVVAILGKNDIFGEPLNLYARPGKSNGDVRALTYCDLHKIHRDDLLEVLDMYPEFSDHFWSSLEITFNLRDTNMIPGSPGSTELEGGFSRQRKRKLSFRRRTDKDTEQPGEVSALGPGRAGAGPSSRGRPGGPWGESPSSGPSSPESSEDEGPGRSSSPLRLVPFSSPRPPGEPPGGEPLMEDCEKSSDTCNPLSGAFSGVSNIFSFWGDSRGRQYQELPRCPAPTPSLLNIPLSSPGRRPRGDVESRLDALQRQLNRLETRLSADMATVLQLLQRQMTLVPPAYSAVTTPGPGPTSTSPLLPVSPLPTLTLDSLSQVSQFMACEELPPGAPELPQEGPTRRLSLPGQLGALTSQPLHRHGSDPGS

WT-Nav1.1 = target: T2, WT-Nav1.1 (Homo sapiens, UniProt P35498); assay: Whole-cell voltage-clamp of WT-Nav1.1 expressed heterologously in tsA201 cells; type: cell-based
T2 construct: expressed in transfected cells; host or cells: tsA201 cells, transient transfection

[2] = Sicouri 2008; Chaitman 2006; cited from earlier work
[3] = usual clinical dosages; minority with mild dizziness, nausea, headache, constipation; cited from earlier work
WT-Nav1.2 = target: T3, WT-Nav1.2 (Homo sapiens, UniProt Q99250); assay: Whole-cell voltage-clamp of WT-Nav1.2 stably transfected in CHO cells; type: cell-based; details: Example 2; methods in present tense, no data given
T3 construct: expressed in transfected cells
T3 sequence (Q99250 whole entry): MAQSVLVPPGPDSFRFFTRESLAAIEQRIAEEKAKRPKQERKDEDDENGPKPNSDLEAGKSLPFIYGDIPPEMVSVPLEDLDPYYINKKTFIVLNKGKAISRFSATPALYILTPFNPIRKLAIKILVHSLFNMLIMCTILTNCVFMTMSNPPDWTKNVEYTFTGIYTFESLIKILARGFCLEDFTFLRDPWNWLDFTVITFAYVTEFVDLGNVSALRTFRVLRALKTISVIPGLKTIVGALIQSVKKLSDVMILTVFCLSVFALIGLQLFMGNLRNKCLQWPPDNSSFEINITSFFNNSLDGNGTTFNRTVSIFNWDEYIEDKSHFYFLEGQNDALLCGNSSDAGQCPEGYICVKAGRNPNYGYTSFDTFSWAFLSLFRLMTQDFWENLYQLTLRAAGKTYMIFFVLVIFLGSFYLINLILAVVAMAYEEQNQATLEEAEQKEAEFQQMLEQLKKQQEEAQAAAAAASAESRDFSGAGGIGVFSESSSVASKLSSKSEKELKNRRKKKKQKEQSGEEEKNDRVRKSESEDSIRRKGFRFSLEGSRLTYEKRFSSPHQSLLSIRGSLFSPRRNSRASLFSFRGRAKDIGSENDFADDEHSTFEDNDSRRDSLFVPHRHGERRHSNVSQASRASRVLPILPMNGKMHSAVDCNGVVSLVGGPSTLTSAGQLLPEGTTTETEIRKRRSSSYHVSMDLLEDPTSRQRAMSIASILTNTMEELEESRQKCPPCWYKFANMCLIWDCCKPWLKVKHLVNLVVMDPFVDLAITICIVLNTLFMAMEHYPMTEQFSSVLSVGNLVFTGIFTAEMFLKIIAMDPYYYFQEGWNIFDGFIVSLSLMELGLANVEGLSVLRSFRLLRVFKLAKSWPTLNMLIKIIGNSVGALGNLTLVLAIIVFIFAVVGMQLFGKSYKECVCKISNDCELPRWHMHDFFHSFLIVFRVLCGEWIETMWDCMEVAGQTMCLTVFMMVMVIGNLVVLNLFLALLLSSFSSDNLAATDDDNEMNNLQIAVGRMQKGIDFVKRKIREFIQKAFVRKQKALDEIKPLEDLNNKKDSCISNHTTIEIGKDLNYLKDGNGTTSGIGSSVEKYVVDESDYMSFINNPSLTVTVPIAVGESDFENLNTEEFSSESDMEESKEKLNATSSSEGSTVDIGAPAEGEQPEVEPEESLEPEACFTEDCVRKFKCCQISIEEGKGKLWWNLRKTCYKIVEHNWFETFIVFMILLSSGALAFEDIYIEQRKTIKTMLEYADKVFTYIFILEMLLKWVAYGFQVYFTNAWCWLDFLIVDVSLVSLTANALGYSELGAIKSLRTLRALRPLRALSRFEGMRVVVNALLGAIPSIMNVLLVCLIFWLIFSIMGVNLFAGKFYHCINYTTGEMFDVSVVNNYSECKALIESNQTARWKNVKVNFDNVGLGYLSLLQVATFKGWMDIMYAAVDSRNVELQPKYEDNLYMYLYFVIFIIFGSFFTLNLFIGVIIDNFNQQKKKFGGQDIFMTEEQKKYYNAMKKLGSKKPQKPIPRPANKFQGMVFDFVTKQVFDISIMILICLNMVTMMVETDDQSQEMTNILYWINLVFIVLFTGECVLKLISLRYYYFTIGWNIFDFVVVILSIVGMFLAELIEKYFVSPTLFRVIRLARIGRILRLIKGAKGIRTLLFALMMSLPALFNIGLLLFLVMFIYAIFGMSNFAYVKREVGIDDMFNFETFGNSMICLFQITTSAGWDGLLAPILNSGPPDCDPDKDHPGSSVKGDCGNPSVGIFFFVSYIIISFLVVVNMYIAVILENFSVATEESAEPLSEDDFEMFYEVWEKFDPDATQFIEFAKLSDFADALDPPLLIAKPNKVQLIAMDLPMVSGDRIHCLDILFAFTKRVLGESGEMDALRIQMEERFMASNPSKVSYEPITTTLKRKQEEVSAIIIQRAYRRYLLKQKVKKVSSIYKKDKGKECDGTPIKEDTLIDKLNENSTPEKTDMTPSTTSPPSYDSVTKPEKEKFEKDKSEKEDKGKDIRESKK

[4] = Brain penetration in rats after continuous intravenous infusion (LC-MS/MS); type: in vivo, Sprague Dawley rats; details: for concentration at 1 h / concentration at 2.5 h / concentration at 5 h: 85.5 μg/kg/min
Protocol: Jugular vein cannulated male Sprague Dawley rats (250-350 g, Charles River Laboratories, Hollister, Calif.) were used to study brain penetration of ranolazine in vivo. Animal use was approved by the Institutional Animal Care and Use Committee, Gilead Sciences. Three rats per group were infused intravenously with ranolazine in saline at 85.5 μg/kg/min. After 1, 2.5 or 5 h animals were sacrificed for plasma and brain collection, and ranolazine concentrations were measured by liquid chromatography coupled with tandem mass spectrometry (LC-MS/MS). Brain tissue was homogenated in 1% 2N HCl acidified 5% sodium fluoride (final homogenate was diluted 3-fold). Plasma and brain homogenate samples (50 μl) were precipitated along with deuterated D3-ranolazine as an internal standard, vortexed and centrifuged. The supernatant (50 μL) was transferred and diluted with water (450 μl) prior to injection (10 μl). High performance liquid chromatography was performed using a Shimadzu LC-10AD liquid chromatograph and a Luna C18(2), 3 μm, 20×2.0 mm column with a mobile phase consisting of water containing 0.1% formic acid (solution A) and acetonitrile (solution B) carried out under isocratic conditions (75% solution A, 25% solution B; flow rate 0.300 ml/min). Mass spectrometric analyses were performed using an API3000 mass spectrometer (Applied Biosystems, Foster City, Calif.) operating in positive ion mode with MRM transition 428.1>98. Brain-to-plasma ranolazine ratios were calculated for each sample as ng ranolazine/g brain divided by ng ranolazine/ml plasma.

Nav1.4 = details: inverse sodium gradient, Wang et al. 2008; cited from earlier work
[5] = tested on: Nav1.1 mutant channels (R1648H, T875M, R1648C, F1661S, L263V, Q1489K); assay: Whole-cell voltage-clamp of panel of Nav1.1 mutant channels (GEFS+, SMEI, FHM3); type: cell-based, Human
[6] = 3 μM ranolazine, pulse trains 10-135 Hz
[7] = pulse 300 of 10 Hz train, read-out: Use-Dependent Block of Peak Current IC50
[8] = read-out: Tonic Block of Peak Current IC50
[9] = read-out: Tonic Block of Persistent Current IC50
[10] = summary statement, persistent current evoked by SCN1A mutations, channel not specified

COc1ccccc1OCC(O)CN1CCN(CC(=O)Nc2c(C)cccc2C)CC1 (racemic) [Ranolazine, (±)-N-(2,6-dimethylphenyl)-4-[2-hydroxy-3-(2-methoxyphenoxy)-propyl]-1-piperazineacetamide]
Potency at inhibiting persistent current compared to use-dependent block of peak current (Nav1.1 R1648H): 4.6 fold | Selectivity for tonic block of persistent current over peak current (Nav1.1 R1648H): approximately 16 fold | Tonic Block of Peak Current k (Hill slope) (Nav1.1 R1648H): −1.00 ± 0.19 | Tonic Block of Persistent Current k (Hill slope) (Nav1.1 R1648H): −1.00 ± 0.09 | Charge conducted during slow depolarizing voltage ramp (−40 to 0 mV, normalized to peak current) (Nav1.1 R1648H; 3 μM ranolazine, 20 mV/s ramp): reduced the charge conducted by R1648H to the level observed in cells expressing WT channels recorded in the absence of drug | Use-dependent block: loss of channel availability (Nav1.1 R1648H; [6]): exaggerated loss of availability at all frequencies greater than 22 Hz | Effect on persistent current (Nav1.1 R1648H; 30 μM ranolazine): substantially reduced | Tonic block of peak current (Nav1.1 R1648H; 30 μM ranolazine): minimal tonic block | Use-Dependent Block of Peak Current k (Hill slope) (Nav1.1 R1648H; 10 Hz train): −0.88 ± 0.03 | IC50 (Nav1.1 R1648H; [7]): 138 µM | IC50 (Nav1.1 R1648H; [8]): 490 µM | IC50 (Nav1.1 R1648H; [9]): 30.2 µM | Block of HERG [1]: blocks | Potency at inhibiting persistent current compared to use-dependent block of peak current (WT-Nav1.1): 3.6 fold | Selectivity for tonic block of persistent current over peak current (WT-Nav1.1): approximately 16 fold | Tonic Block of Peak Current k (Hill slope) (WT-Nav1.1): −0.84 ± 0.15 | Tonic Block of Persistent Current k (Hill slope) (WT-Nav1.1): −0.83 ± 0.06 | Use-dependent block: loss of channel availability (WT-Nav1.1; [6]): exaggerated loss of availability at all frequencies greater than 22 Hz | Effect on peak current density (WT-Nav1.1; 30 μM ranolazine): no significant effect | Shift of voltage-dependence of activation or inactivation (WT-Nav1.1; 30 μM ranolazine): did not significantly shift | Tonic block of peak current (WT-Nav1.1; 30 μM ranolazine): minimal | Use-dependent block: peak current during repetitive pulsing (WT-Nav1.1; 30 μM ranolazine, 5 ms, −10 mV, 300 pulses, 10 Hz): caused a reduction in peak current during repetitive pulsing | Inactivation k (slope factor) (WT-Nav1.1; 30 μM ranolazine, fast inactivation): −8.0 ± 0.5 mV | Inactivation V1/2 (WT-Nav1.1; 30 μM ranolazine, fast inactivation, 100 ms prepulses): −64.2 ± 0.8 mV | Activation V1/2 (WT-Nav1.1; 30 μM ranolazine, n=10): −21.6 ± 0.8 mV | Activation k (slope factor) (WT-Nav1.1; 30 μM ranolazine, n=10): 8.0 ± 0.2 mV | Use-Dependent Block of Peak Current k (Hill slope) (WT-Nav1.1; 10 Hz train): −0.84 ± 0.05 | IC50 (WT-Nav1.1; [7]): 195 µM | IC50 (WT-Nav1.1; [8]): 871 µM | IC50 (WT-Nav1.1; [9]): 53.7 µM | Usual therapeutic plasma concentration [2]: 2 to 10 µM | Tolerability [3]: well tolerated | Inhibition of WT-Nav1.2 (WT-Nav1.2): has the ability to inhibit WT-Nav1.2 | Feasible brain concentration ([4]; extrapolated from therapeutic plasma concentration 2-10 μM): up to 3.3 μM | Kp at 1 h ([4]; male, Sprague Dawley, brain, iv, rat, i.v. infusion 85.5 μg/kg/min, 1 h, read-out: Brain/Plasma): 0.38 | Kp at 2.5 h ([4]; male, Sprague Dawley, brain, iv, rat, i.v. infusion 85.5 μg/kg/min, 2.5 h, read-out: Brain/Plasma): 0.38 | Kp at 5 h ([4]; male, Sprague Dawley, brain, iv, rat, i.v. infusion 85.5 μg/kg/min, 5 h, read-out: Brain/Plasma): 0.3 | concentration at 1 h ([4]; male, Sprague Dawley, rat, brain, iv, Brain (molar), rat, i.v. infusion 85.5 μg/kg/min, 1 h, heading: Brain): 700 nM | concentration at 2.5 h ([4]; male, Sprague Dawley, rat, brain, iv, Brain (molar), rat, i.v. infusion 85.5 μg/kg/min, 2.5 h, heading: Brain): 1040 nM | concentration at 1 h ([4]; male, Sprague Dawley, rat, brain, iv, rat, i.v. infusion 85.5 μg/kg/min, 1 h, read-out: Brain): 298 ± 88.6 ng/g | concentration at 2.5 h ([4]; male, Sprague Dawley, rat, brain, iv, rat, i.v. infusion 85.5 μg/kg/min, 2.5 h, read-out: Brain): 446 ± 302 ng/g | concentration at 5 h ([4]; male, Sprague Dawley, rat, brain, iv, rat, i.v. infusion 85.5 μg/kg/min, 5 h, read-out: Brain): 470 ± 300 ng/g | concentration at 1 h ([4]; male, Sprague Dawley, rat, plasma, iv, rat, i.v. infusion 85.5 μg/kg/min, 1 h, read-out: Plasma): 777 ± 255 ng/mL | concentration at 2.5 h ([4]; male, Sprague Dawley, rat, plasma, iv, rat, i.v. infusion 85.5 μg/kg/min, 2.5 h, read-out: Plasma): 1180 ± 456 ng/mL | concentration at 5 h ([4]; male, Sprague Dawley, rat, plasma, iv, rat, i.v. infusion 85.5 μg/kg/min, 5 h, heading: Plasma, read-out: Plasma): 3.72 µM | concentration at 5 h ([4]; male, Sprague Dawley, rat, plasma, iv, rat, i.v. infusion 85.5 μg/kg/min, 5 h, read-out: Plasma): 1590 ± 488 ng/mL | Brain penetration ([4]; rat, all time points (1, 2.5, 5 h)): significant brain penetration | Brain ([4]; rat, i.v. infusion 85.5 μg/kg/min, 5 h): 470 ng/g | Mean brain levels as fraction of corresponding plasma levels ([4]; rat, throughout the time course 1-5 h): approximately one third | Association rate kon (Nav1.4): 8.2 µM⁻¹ s⁻¹ | Use-dependent block: channel availability by the 300th pulse ([5]; 30 μM ranolazine, WT-Nav1.1 and mutant channels, 10 Hz): significant loss of channel availability | Block of persistent current compared to peak current ([5]; 30 μM ranolazine, all mutants, tonic block): much greater degree of ranolazine block of persistent current as compared to peak current | Use-dependent reduction in channel availability compared to WT-Nav1.1 ([5]; 30 μM ranolazine, mutants R1648H, T875M and R1648C): significantly greater reduction in channel availability | Level of persistent current in presence of ranolazine versus WT-Nav1.1 without drug ([5]; 30 μM ranolazine, mutants R1648H, T875M, L263V): not significantly different from WT-Nav1.1 channels in the absence of drug | Greater inhibition of persistent current compared to tonic block of peak current [5, 10]: 16 fold | Greater inhibition of persistent current compared to use-dependent block of peak current [5, 10]: 5 fold
